Measurements as given in the NIST ThermoML archive (doi:10.1021/je500314x).

Conditions: gamma densitometer

O [water]
Liquid
Conditions | mass density [kg/m3]
286 K, 3000 kPa | 1000.7
288.3 K, 5000 kPa | 1001.4
303.5 K, 5000 kPa | 996.5
305 K, 3000 kPa | 996.2
322.6 K, 3000 kPa | 988.4
324.8 K, 5000 kPa | 990.7
343.4 K, 3000 kPa | 977.7
344.3 K, 5000 kPa | 981.8
356.4 K, 3000 kPa | 969
358.6 K, 5000 kPa | 966.8
372.3 K, 5000 kPa | 957.1
374.7 K, 3000 kPa | 962.3
384 K, 5000 kPa | 947
391.2 K, 3000 kPa | 945
393.6 K, 5000 kPa | 938.5
403.8 K, 5000 kPa | 932.6
412.5 K, 3000 kPa | 927.7
414.2 K, 5000 kPa | 923
423.2 K, 5000 kPa | 915.2
423.8 K, 3000 kPa | 920.4
432.8 K, 5000 kPa | 903.3
442.5 K, 3000 kPa | 899.6
442.7 K, 5000 kPa | 893.8
452.6 K, 5000 kPa | 884.3
462 K, 5000 kPa | 876.7
462.5 K, 3000 kPa | 880.9
471.4 K, 3000 kPa | 873.1
474.3 K, 5000 kPa | 864.5
483.9 K, 3000 kPa | 858.3
484.1 K, 5000 kPa | 854.6
491.4 K, 5000 kPa | 839.5
492.5 K, 3000 kPa | 841.7
500.4 K, 3000 kPa | 827.9
502.5 K, 5000 kPa | 824.9
511 K, 5000 kPa | 814.1

C1CCCCC1 [cyclohexane]
5000 kPa, Fluid (supercritical or subcritical phases)
Conditions | mass density [kg/m3]
287 K | 788.3
305.9 K | 763.7
324.9 K | 752.1
351 K | 731.8
375 K | 704.3
394.8 K | 686.7
416.6 K | 666.5
431.9 K | 646.2
452.4 K | 620.2
475.1 K | 595.5
488.4 K | 573.5
504.4 K | 546.3
513.9 K | 527.5
522.6 K | 510.3
531.9 K | 487
543 K | 454.5
553.2 K | 426.2
561.7 K | 365.6
572.1 K | 259.5
584.2 K | 187
592.5 K | 167
603.6 K | 149.3
618.8 K | 133
635 K | 118.3
654.2 K | 109.8
672.3 K | 96.5
687.5 K | 92
698.5 K | 89.9
